ChEMBL document CHEMBL4507315 (2021)

Assays:
[1] = target: Cyclin-dependent kinase-like 5 (Homo sapiens) (UniProt O76039); conditions: Compound concentration 100.0 nM
[2] = target: cGMP-dependent protein kinase 2 (Homo sapiens) (UniProt Q13237); conditions: Compound concentration 100.0 nM
[3] = target: cAMP-dependent protein kinase catalytic subunit PRKX (Homo sapiens) (UniProt P51817); conditions: Compound concentration 100.0 nM
[4] = target: Calcium-dependent protein kinase 1 (Plasmodium falciparum) (UniProt P62344); conditions: Compound concentration 100.0 nM
[5] = target: Tyrosine-protein kinase BTK (Homo sapiens) (UniProt Q06187); conditions: Compound concentration 100.0 nM
[6] = target: Phosphatidylinositol 3-kinase catalytic subunit type 3 (Homo sapiens) (UniProt Q8NEB9); conditions: Compound concentration 100.0 nM
Sequence of Phosphatidylinositol 3-kinase catalytic subunit type 3 (Homo sapiens) (Q8NEB9 whole entry): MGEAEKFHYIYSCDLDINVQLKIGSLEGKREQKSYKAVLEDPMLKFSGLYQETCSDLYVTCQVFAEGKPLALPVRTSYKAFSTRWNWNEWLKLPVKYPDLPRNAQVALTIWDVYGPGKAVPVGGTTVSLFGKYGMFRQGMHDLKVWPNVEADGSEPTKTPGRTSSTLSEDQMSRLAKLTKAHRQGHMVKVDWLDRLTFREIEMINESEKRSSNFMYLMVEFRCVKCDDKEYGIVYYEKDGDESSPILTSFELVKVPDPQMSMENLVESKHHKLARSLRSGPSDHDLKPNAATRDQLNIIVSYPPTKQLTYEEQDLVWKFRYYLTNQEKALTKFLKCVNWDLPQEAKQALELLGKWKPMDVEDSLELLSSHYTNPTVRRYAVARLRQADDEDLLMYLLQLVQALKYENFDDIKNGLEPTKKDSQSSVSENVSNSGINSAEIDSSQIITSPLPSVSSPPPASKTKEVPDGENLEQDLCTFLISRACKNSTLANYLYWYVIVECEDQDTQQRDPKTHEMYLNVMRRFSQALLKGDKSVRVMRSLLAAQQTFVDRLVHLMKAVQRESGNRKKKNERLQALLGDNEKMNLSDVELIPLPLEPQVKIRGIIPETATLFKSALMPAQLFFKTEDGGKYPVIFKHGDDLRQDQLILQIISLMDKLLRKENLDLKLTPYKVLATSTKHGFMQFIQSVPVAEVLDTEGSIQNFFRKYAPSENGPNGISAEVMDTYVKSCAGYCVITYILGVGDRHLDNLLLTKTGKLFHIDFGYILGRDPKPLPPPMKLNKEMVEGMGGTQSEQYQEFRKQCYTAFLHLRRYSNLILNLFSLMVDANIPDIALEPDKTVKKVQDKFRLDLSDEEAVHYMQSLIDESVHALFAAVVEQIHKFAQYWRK

[7] = target: Serine/threonine-protein kinase TBK1 (Homo sapiens) (UniProt Q9UHD2); conditions: Compound concentration 100.0 nM
[8] = target: Glycogen synthase kinase-3 alpha (Homo sapiens) (UniProt P49840); conditions: Compound concentration 100.0 nM
[9] = target: D(1A) dopamine receptor (Homo sapiens) (UniProt P21728); conditions: Compound concentration 10.0 uM
[10] = target: TGF-beta receptor type-2 (Homo sapiens) (UniProt P37173); conditions: Compound concentration 100.0 nM
[11] = target: Serine/threonine-protein kinase PLK2 (Homo sapiens) (UniProt Q9NYY3); conditions: Compound concentration 100.0 nM
Sequence of Serine/threonine-protein kinase PLK2 (Homo sapiens) (Q9NYY3 whole entry, looked up): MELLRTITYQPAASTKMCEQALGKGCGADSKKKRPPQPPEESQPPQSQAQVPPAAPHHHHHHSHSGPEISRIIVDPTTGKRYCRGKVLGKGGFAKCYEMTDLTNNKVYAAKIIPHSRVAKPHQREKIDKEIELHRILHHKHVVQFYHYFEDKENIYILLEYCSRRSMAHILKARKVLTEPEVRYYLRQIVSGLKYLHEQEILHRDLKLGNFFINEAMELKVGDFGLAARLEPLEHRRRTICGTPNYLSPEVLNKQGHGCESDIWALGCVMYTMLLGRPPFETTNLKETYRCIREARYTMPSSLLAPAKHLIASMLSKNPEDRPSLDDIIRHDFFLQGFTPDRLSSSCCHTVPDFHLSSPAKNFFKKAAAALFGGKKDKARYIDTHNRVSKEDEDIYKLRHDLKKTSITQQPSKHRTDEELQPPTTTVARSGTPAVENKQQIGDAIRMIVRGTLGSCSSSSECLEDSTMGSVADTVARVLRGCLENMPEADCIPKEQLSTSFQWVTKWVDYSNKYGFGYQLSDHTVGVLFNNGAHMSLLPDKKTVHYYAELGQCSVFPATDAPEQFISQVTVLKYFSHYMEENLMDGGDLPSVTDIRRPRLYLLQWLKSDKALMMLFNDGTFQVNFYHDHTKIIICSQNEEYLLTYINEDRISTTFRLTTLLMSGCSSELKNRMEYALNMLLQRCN

[12] = target: Cyclin-dependent kinase 18 (Homo sapiens) (UniProt Q07002); conditions: Compound concentration 100.0 nM
[13] = target: Serine/threonine-protein kinase DCLK3 (Homo sapiens) (UniProt Q9C098); conditions: Compound concentration 100.0 nM
[14] = target: Death-associated protein kinase 1 (Homo sapiens) (UniProt P53355); conditions: Compound concentration 100.0 nM
[15] = target: Cytoplasmic tyrosine-protein kinase BMX (Homo sapiens) (UniProt P51813); conditions: Compound concentration 100.0 nM
[16] = target: Cyclin-dependent kinase 4 (Homo sapiens) (UniProt P11802); conditions: Compound concentration 100.0 nM
Sequence of Cyclin-dependent kinase 4 (Homo sapiens) (P11802 whole entry): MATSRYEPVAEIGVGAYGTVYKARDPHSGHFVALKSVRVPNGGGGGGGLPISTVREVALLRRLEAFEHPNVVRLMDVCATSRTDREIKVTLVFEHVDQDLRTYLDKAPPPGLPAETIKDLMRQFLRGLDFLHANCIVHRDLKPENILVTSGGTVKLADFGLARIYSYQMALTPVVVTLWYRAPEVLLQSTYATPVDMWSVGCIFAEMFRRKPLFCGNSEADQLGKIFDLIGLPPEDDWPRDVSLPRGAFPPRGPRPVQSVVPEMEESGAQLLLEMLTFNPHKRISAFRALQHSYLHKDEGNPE

[17] = target: Mitogen-activated protein kinase kinase kinase 1 (Homo sapiens) (UniProt Q13233); conditions: Compound concentration 100.0 nM
[18] = target: Receptor tyrosine-protein kinase erbB-4 (Homo sapiens) (UniProt Q15303); conditions: Compound concentration 100.0 nM
[19] = target: Cyclin-dependent kinase 11A (Homo sapiens) (UniProt Q9UQ88); conditions: Compound concentration 100.0 nM
Sequence of Cyclin-dependent kinase 11A (Homo sapiens) (Q9UQ88 whole entry): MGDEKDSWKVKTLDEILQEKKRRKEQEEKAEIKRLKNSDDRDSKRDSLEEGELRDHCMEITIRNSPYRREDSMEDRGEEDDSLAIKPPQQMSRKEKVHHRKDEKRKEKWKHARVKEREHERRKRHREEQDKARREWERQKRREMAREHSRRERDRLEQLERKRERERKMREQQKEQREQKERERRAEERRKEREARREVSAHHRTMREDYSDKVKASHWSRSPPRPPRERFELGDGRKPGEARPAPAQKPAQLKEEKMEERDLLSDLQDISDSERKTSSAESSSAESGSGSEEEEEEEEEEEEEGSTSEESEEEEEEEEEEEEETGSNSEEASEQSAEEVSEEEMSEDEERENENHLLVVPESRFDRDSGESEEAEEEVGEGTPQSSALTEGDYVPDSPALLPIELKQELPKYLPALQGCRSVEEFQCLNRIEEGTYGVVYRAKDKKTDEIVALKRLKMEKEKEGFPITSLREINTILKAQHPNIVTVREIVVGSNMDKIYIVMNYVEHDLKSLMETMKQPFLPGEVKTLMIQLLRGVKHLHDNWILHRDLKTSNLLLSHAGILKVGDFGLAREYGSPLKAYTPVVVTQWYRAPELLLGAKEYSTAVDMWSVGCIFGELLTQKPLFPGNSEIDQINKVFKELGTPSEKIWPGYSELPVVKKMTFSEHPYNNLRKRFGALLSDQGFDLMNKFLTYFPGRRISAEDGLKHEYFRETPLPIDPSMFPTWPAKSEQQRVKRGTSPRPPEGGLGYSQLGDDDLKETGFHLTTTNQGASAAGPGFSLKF

[20] = target: Fibroblast growth factor receptor 1 (Homo sapiens) (UniProt P11362); conditions: Compound concentration 100.0 nM
[21] = target: Death-associated protein kinase 3 (Homo sapiens) (UniProt O43293); conditions: Compound concentration 100.0 nM
[22] = target: Serine/threonine-protein kinase 16 (Homo sapiens) (UniProt O75716); conditions: Compound concentration 100.0 nM
[23] = target: Ephrin type-A receptor 6 (Homo sapiens) (UniProt Q9UF33); conditions: Compound concentration 100.0 nM
[24] = target: Rho-associated protein kinase 1 (Homo sapiens) (UniProt Q13464); conditions: Compound concentration 100.0 nM
[25] = target: Dual specificity protein kinase TTK (Homo sapiens) (UniProt P33981); conditions: Compound concentration 100.0 nM
[26] = target: Mitogen-activated protein kinase kinase kinase 20 (Homo sapiens, UniProt Q9NYL2); assay: NanoBRET (MAP3K20)
[27] = target: Serine/threonine-protein kinase TAO3 (Homo sapiens) (UniProt Q9H2K8); conditions: Compound concentration 100.0 nM
[28] = target: Tyrosine-protein kinase JAK2 (Homo sapiens) (UniProt O60674); conditions: Compound concentration 100.0 nM
[29] = target: Serine/threonine-protein kinase haspin (Homo sapiens) (UniProt Q8TF76); conditions: Compound concentration 100.0 nM
Sequence of Serine/threonine-protein kinase haspin (Homo sapiens) (Q8TF76 whole entry): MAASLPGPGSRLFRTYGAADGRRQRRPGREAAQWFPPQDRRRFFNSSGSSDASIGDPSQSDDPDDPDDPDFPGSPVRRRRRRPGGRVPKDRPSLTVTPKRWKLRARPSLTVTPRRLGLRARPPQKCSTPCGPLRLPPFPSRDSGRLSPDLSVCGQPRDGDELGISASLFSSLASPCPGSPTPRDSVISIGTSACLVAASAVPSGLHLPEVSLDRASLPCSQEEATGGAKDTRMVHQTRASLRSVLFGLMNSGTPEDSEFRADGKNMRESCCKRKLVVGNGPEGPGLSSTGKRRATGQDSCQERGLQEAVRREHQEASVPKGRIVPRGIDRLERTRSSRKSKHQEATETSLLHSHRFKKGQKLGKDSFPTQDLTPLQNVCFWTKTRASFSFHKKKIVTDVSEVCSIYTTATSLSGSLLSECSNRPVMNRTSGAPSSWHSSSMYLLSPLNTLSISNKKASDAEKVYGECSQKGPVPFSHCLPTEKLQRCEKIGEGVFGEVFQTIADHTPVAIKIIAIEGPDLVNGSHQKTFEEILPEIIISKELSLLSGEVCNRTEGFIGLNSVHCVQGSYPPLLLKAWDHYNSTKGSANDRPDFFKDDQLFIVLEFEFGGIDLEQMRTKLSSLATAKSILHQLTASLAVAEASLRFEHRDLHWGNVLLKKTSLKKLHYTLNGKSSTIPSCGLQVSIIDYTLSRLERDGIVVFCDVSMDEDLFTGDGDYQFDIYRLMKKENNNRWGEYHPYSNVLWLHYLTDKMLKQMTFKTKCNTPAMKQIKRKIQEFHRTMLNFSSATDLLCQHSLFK

[30] = target: G protein-coupled receptor kinase 4 (Homo sapiens) (UniProt P32298); conditions: Compound concentration 100.0 nM
[31] = target: Mitogen-activated protein kinase kinase kinase 14 (Homo sapiens) (UniProt Q99558); conditions: Compound concentration 100.0 nM
[32] = target: Calcium/calmodulin-dependent protein kinase kinase 2 (Homo sapiens) (UniProt Q96RR4); conditions: Compound concentration 100.0 nM
[33] = target: MAP kinase-activated protein kinase 5 (Homo sapiens) (UniProt Q8IW41); conditions: Compound concentration 100.0 nM
[34] = target: Muscarinic acetylcholine receptor M3 (Homo sapiens) (UniProt P20309); conditions: Compound concentration 10.0 uM
[35] = target: Serine/threonine-protein kinase 35 (Homo sapiens) (UniProt Q8TDR2); conditions: Compound concentration 100.0 nM
[36] = target: Serine/threonine-protein kinase N1 (Homo sapiens) (UniProt Q16512); conditions: Compound concentration 100.0 nM
[37] = target: Ephrin type-B receptor 4 (Homo sapiens) (UniProt P54760); conditions: Compound concentration 100.0 nM
[38] = target: Serine/threonine-protein kinase D2 (Homo sapiens) (UniProt Q9BZL6); conditions: Compound concentration 100.0 nM
Sequence of Serine/threonine-protein kinase D2 (Homo sapiens) (Q9BZL6 whole entry): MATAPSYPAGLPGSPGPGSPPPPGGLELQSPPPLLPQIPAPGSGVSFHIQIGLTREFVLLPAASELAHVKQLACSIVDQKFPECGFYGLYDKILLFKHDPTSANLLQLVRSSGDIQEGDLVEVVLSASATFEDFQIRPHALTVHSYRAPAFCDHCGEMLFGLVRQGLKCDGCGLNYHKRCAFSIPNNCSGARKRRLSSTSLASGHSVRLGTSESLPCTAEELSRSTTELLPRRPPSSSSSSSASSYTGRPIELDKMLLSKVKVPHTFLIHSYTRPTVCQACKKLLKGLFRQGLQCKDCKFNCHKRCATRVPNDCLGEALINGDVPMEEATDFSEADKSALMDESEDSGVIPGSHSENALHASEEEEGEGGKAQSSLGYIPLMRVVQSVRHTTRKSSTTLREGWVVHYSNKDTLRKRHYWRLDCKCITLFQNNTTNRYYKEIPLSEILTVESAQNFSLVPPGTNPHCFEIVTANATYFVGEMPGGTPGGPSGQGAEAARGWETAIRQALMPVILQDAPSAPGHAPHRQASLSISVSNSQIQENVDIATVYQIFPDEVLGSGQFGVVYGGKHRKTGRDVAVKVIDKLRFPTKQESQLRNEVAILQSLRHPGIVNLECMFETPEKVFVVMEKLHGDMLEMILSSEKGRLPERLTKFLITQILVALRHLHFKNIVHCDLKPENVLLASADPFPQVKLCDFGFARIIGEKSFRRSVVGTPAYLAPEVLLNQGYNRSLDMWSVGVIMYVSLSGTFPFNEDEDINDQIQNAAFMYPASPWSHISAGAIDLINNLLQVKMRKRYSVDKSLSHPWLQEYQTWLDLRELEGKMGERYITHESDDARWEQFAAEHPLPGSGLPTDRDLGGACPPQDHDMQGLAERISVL

[39] = target: Sigma non-opioid intracellular receptor 1 (Homo sapiens) (UniProt Q99720); conditions: Compound concentration 10.0 uM
[40] = target: Serine/threonine-protein kinase N2 (Homo sapiens) (UniProt Q16513); conditions: Compound concentration 100.0 nM
[41] = target: Phosphatidylinositol 5-phosphate 4-kinase type-2 gamma (Homo sapiens) (UniProt Q8TBX8); conditions: Compound concentration 100.0 nM
[42] = target: Ribosomal protein S6 kinase alpha-2 (Homo sapiens) (UniProt Q15349); conditions: Compound concentration 100.0 nM
Sequence of Ribosomal protein S6 kinase alpha-2 (Homo sapiens) (Q15349 whole entry): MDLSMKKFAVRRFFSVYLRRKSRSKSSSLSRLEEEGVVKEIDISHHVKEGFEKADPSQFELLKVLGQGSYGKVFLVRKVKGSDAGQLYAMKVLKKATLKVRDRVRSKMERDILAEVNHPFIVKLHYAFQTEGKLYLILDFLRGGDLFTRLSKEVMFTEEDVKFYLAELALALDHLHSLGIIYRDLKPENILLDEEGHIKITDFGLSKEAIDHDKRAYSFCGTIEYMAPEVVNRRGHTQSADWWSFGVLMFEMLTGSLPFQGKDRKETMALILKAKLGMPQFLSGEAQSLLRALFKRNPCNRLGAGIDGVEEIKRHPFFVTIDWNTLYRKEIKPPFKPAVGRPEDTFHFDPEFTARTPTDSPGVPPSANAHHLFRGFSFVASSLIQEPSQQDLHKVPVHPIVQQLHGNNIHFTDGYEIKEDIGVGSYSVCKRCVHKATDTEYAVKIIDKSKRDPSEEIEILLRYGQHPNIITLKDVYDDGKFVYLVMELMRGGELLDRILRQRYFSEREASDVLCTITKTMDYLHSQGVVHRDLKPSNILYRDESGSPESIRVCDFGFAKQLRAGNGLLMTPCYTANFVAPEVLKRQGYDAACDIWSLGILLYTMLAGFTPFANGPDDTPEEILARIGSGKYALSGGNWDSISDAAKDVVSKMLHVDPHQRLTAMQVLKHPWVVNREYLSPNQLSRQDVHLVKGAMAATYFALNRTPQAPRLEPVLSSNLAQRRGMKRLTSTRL

[43] = target: Vascular endothelial growth factor receptor 1 (Homo sapiens) (UniProt P17948); conditions: Compound concentration 100.0 nM
[44] = target: GABA-A receptor; anion channel (Rattus norvegicus) (UniProt O09028+P15431+P18506+P18508+P19969+P20236+P23574+P23576+P28471+P28473+P30191+P62813+P63079+P63138+Q91ZM7+Q9ES14); conditions: Compound concentration 10.0 uM

In the case of `Nc1c(C(=O)NCc2ccc(C(=O)NCCCC3CCCCC3)cc2)cnn1-c1ccccc1` [SR-318], the residual activity [1] is reported as 100%, the residual activity [2] is reported as 96% and the residual activity [3] is reported as 87%. The residual activity [4] was 86%, the residual activity [5] was 100% and the residual activity [6] was 99%. For the same compound, the residual activity [7] was 96%, the residual activity [8] was 100% and the inhibition [9] was -5.64%. For the same compound, the residual activity [10] was 99%, the residual activity [11] was 100% and the residual activity [12] was 100%. It also gave a residual activity [13] of 100%, a residual activity [14] of 92% and a residual activity [15] of 100%. It also gave a residual activity [16] of 100%, a residual activity [17] of 96% and a residual activity [18] of 89%. It also gave a residual activity [19] of 100%, a residual activity [20] of 71% and a residual activity [21] of 100%. The residual activity [22] was 100%, the residual activity [23] was 94% and the residual activity [24] was 100%. The residual activity [25] was 100%, the IC50 [26] was 0.91 µM (not active) and the residual activity [27] was 96%. For the same compound, the residual activity [28] was 100%, the residual activity [29] was 100% and the residual activity [30] was 100%. For the same compound, the residual activity [31] was 100%, the residual activity [32] was 100% and the residual activity [33] was 93%. The inhibition [34] was 25.2%, the residual activity [35] was 100% and the residual activity [36] was 96%. For the same compound, the residual activity [37] was 100%, the residual activity [38] was 100% and the inhibition [39] was 45.1%. The residual activity [40] was 78%, the residual activity [41] was 100% and the residual activity [42] was 100%. It also gave a residual activity [43] of 100% and an inhibition [44] of 21.7%.

For `O=C(NCCCC1CCCCC1)c1ccc(CNC(=O)c2cnn(-c3ccccc3)c2C(F)(F)F)cc1` [SR-321], the residual activity [1] was 100%, the residual activity [2] was 89% and the residual activity [3] was 100%. For the same compound, the residual activity [4] was 100%, the residual activity [5] was 100% and the residual activity [6] was 100%. The residual activity [7] was 100%, the residual activity [8] was 100% and the inhibition [9] was 5.56%. It also gave a residual activity [10] of 100%, a residual activity [11] of 100% and a residual activity [12] of 100%. The residual activity [13] was 100%, the residual activity [14] was 100% and the residual activity [15] was 75%. For the same compound, the residual activity [16] was 100%, the residual activity [17] was 65% and the residual activity [18] was 100%. The residual activity [19] was 100%, the residual activity [20] was 100% and the residual activity [21] was 92%. The residual activity [22] was 100%, the residual activity [23] was 88% and the residual activity [24] was 100%. The residual activity [25] was 91%, the IC50 [26] was 5.8 µM (not active) and the residual activity [27] was 99%. The residual activity [28] was 100%, the residual activity [29] was 100% and the residual activity [30] was 100%. For the same compound, the residual activity [31] was 90%, the residual activity [32] was 100% and the residual activity [33] was 100%. For the same compound, the inhibition [34] was 19.5%, the residual activity [35] was 100% and the residual activity [36] was 100%. The residual activity [37] was 95%, the residual activity [38] was 100% and the inhibition [39] was 20.1%. For the same compound, the residual activity [40] was 100%, the residual activity [41] was 99% and the residual activity [42] was 100%. For the same compound, the residual activity [43] was 100% and the inhibition [44] was -4.39%.
